According to US9107411B2, “Indolecarboxamides and benzimidazolecarboxamides as insecticides and acaricides” (BAYER INTELLECTUAL PROPERTY GMBH, priority 2011, dated 2015):

Experiments:
Ctenocephalides felis = Ctenocephalides felis oral (CTECFE); format: in vivo; conditions: application rate 100 ppm in citrated cattle blood; after 2 days
Procedure, shortened: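 Readout is percent mortality after 2 days (0–100%) in roughly 20 unfed adult fleas. The fleas had imbibed citrated cattle blood dosed with compound through Parafilm, with the compound diluted from a DMSO concentrate.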

Amblyomma hebraeum = assay: Amblyomma hebaraeum test (AMBYHE); format: in vivo; conditions: application rate 100 ppm; tick nymphs immersed one minute; after 42 days
Method: Amblyomma hebaraeum Test (AMBYHE) Solvent: dimethyl sulphoxide To prepare an appropriate active ingredient formulation, 10 mg of active ingredient are mixed with 0.5 ml of dimethyl sulphoxide and the concentrate is diluted with water to the desired concentration. Tick nymphs (Amblyomma hebraeum) are placed into perforated plastic beakers and immersed in the desired concentration for one minute. The ticks are transferred on filter paper into a Petri dish and stored in a climate-controlled cabinet. After 42 days, the kill in % is determined 100% means that all of the ticks have been killed; 0% means that none of the ticks have been killed.

Phaedon cochleariae = assay: Phaedon test (PHAECO spray treatment); format: in vivo; conditions: application rate 500 g/ha; Chinese cabbage leaf discs; after 7 days
Procedure, shortened: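 Larval mortality was assessed 7 days after Phaedon cochleariae larvae were placed on dried, spray-treated Brassica pekinensis leaf discs. The formulation was an acetone/dimethylformamide concentrate with alkylaryl polyglycol ether emulsifier, diluted in emulsifier-containing water. Results are given as % kill, from 0 (no larvae dead) to 100 (all dead).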

logP (HPLC-MS) = format: physicochemical; conditions: HPLC, reversed-phase column (C18), acidic range pH 2.7, acetonitrile (0.1% formic acid)/water gradient, 43° C., calibration with unbranched alkan-2-ones
adult Musca domestica = assay: Musca domestica test (MUSCDO); format: in vivo; conditions: application rate 100 ppm; treated sponge; after 2 days
Procedure, shortened: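 After 2 days' exposure to a treated sponge, adult house fly mortality was recorded as kill %. Formulation: active ingredient in dimethyl sulphoxide, then water dilution to the test concentration.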

Spodoptera frugiperda = Spodoptera frugiperda test (SPODFR spray treatment); format: in vivo; conditions: application rate 500 g/ha; maize leaf discs; after 7 days
Procedure, shortened: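 Mortality read-out at 7 days, given as % efficacy, where 100% means every caterpillar dead and 0% none. Caterpillars were placed on dried maize leaf discs that had been sprayed with test formulation. That formulation was an acetone/dimethylformamide concentrate diluted in emulsifier-containing water.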

Boophilus microplus = Boophilus microplus test (BOOPMI injection); format: in vivo; conditions: application rate 20 μg/animal; injected into the abdomen; after 7 days
Procedure, shortened: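 Read-out after 7 days is % efficacy, judged by fertile egg laying, with 100% meaning no fertile eggs from any tick. Compound was given by abdominal injection as a DMSO solution diluted to the desired concentration. Treated ticks were held in dishes in a climate-controlled room.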

Lucilia cuprina larvae = assay: Lucilia cuprina test (LUCICU); format: in vivo; conditions: application rate 100 ppm; treated horse meat; after 2 days
Procedure, shortened: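 Mortality scored as percent of larvae killed 2 days after exposure. Horse meat was treated with the compound, formulated from DMSO stock diluted with water to the test concentration, and populated with roughly 20 larvae.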

Tetranychus urticae = assay: Tetranychus test, OP-resistant (TETRUR spray treatment); format: in vivo; conditions: application rate 500 g/ha; bean leaf discs; after 6 days
Procedure, shortened: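 Bean leaf discs infested with all stages of OP-resistant T. urticae sprayed with compound formulated in acetone/DMF plus alkylaryl polyglycol ether emulsifier, diluted in water. Efficacy (% mites killed) scored after 6 days.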

C#CCn1c(C(=O)NC(c2ccc(F)c(Br)c2)C(F)(F)F)cc2cc(C(=O)NC3CC3)c(Cl)cc21 (stereo not drawn) [Compound 14]
3.52: log p (logP (HPLC-MS))
100%: efficacy (kill in %) (Ctenocephalides felis) | efficacy (kill in %) (Amblyomma hebraeum) | efficacy in % (Phaedon cochleariae) | efficacy (kill in %) (adult Musca domestica) | efficacy in % (Spodoptera frugiperda) | efficacy (laying of fertile eggs) (Boophilus microplus) | efficacy (kill in %) (Lucilia cuprina larvae) | efficacy in % (Tetranychus urticae)
